Measurements reported in patent US11109590B2 (priority 2017, dated 2021).
Where two headings read alike, the source gives them in different places.

Columns and labels:
[1] = system: Legionella pneumophilia (ATCC 33152); assay type: cell-based; conditions: pH 8.0, 0.005% yeast extract
[2] = system: P. aeruginosa (PA01) in biofilm; experiment: Antimicrobial efficacy in relation to bacteria in biofilm (24 hours old); assay type: cell-based; conditions: for Log10 reduction factor: biofilm, starting number > 8 log10 cfu/cm^2

Row | Compound | Log10 reduction factor ([1]; 7.50% aqueous solution, 15 min exposure) [Log10] | Log10 reduction factor ([1]; 7.50% aqueous solution, 30 min exposure) [Log10] | Log10 reduction factor ([1]; 7.50% aqueous solution, 60 min exposure) [Log10] | Log10 reduction factor ([1]; 7.50% aqueous solution, 120 min exposure) [Log10] | Log10 reduction factor ([2]; 1.7% solution, 5 min exposure) [Log10] | Log10 reduction factor ([2]; 1.7% solution, 15 min exposure) [Log10] | Log10 reduction factor ([2]; 1.7% solution, 30 min exposure) [Log10] | Log10 reduction factor ([2]; 1.7% solution, 60 min exposure) [Log10] | antimicrobial efficacy in biofilms (in words) ([2]; 1.7%, compared to 17% H2O2 and 100% PAM) | antimicrobial efficacy in relation to biofilms (in words) ([2]; 17%) | Log10 reduction factor ([2]; 17% aqueous solution, 5 min exposure) [Log10] | Log10 reduction factor ([2]; 17% aqueous solution, 15 min exposure) [Log10] | Log10 reduction factor ([2]; 17% aqueous solution, 30 min exposure) [Log10] | Log10 reduction factor ([2]; 17% aqueous solution, 60 min exposure) [Log10] | antimicrobial effect in relation to the test organisms in biofilms 24 hours old (in words) ([2]; 17% solution, after just 5 minutes of exposure time) | Log10 reduction factor ([1]; aqueous 1% solution, 15 min exposure) [Log10] | Log10 reduction factor ([1]; aqueous 1% solution, 30 min exposure) [Log10] | Log10 reduction factor ([1]; aqueous 1% solution, 60 min exposure) [Log10] | Log10 reduction factor ([1]; aqueous 1% solution, 120 min exposure) [Log10]
1 | OO [H2O2, hydrogen peroxide] | 2.24 | 3.44 | 4.25 | 4.83 | 0.84 | 1.62 | 1.95 | 2.53 | significant loss of antimicrobial efficacy | high and substantially equivalent | >8.00 | >8.00 | >8.00 | >8.00 | high antimicrobial effect |  |  |  | 
2 | polyoxyethylene (20) sorbitan monooleate [PSb 80] |  |  |  |  |  |  |  |  |  |  |  |  |  |  |  | 0.06 | 0.09 | 0.09 | 0.11
